Consider 5 compounds from patent US9730940B2, “Purine inhibitors of human phosphatidylinositol 3-kinase delta” (priority 2012, dated 2017).

A word on the pIC50: it is the negative decadic logarithm of the IC50, by convention in mol/L. Low readings indicate a high IC50, high ones a low IC50.

pIC50: −log10 of the molar value.

The target in assay [1] is PI3K-alpha (Homo sapiens (Human), UniProt P42336). The experiment in a line: HTRF PI3K biochemical assay, alpha isoform. To be noted: ratio PI3K-alpha IC50 value/PI3K-delta IC50 value. (In general: Time-resolved FRET reads energy transfer from a long-lived donor to a nearby acceptor.)
PI3K-alpha, sequence (P42336 whole entry, looked up, canonical isoform): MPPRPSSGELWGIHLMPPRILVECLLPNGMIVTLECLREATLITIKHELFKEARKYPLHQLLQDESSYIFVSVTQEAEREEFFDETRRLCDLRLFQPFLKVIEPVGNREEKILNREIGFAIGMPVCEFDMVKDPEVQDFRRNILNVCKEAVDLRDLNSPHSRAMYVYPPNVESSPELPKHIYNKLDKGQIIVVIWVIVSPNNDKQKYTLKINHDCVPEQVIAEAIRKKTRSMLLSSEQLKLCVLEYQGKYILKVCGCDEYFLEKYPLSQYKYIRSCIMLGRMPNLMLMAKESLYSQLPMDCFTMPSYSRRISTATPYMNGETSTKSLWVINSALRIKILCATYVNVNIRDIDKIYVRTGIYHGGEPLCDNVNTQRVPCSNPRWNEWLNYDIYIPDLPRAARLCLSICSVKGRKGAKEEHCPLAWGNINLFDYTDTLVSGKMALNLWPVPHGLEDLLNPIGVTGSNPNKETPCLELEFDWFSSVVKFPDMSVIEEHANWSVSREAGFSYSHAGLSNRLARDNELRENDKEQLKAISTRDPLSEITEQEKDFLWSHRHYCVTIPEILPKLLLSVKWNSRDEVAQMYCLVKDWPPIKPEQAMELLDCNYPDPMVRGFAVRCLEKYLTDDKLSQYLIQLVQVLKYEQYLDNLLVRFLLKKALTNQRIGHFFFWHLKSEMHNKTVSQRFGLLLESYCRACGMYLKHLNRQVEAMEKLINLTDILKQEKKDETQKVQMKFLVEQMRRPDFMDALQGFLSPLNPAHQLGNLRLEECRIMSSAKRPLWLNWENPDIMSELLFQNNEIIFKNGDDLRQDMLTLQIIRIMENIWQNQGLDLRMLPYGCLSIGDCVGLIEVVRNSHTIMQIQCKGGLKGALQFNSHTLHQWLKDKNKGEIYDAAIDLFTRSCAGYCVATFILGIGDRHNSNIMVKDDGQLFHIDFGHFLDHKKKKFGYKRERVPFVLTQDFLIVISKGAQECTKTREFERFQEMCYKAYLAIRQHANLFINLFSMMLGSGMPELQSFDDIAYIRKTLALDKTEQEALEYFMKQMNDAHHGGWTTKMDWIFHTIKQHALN
PI3K-alpha, sequence (P27986 whole entry partner, looked up, canonical isoform): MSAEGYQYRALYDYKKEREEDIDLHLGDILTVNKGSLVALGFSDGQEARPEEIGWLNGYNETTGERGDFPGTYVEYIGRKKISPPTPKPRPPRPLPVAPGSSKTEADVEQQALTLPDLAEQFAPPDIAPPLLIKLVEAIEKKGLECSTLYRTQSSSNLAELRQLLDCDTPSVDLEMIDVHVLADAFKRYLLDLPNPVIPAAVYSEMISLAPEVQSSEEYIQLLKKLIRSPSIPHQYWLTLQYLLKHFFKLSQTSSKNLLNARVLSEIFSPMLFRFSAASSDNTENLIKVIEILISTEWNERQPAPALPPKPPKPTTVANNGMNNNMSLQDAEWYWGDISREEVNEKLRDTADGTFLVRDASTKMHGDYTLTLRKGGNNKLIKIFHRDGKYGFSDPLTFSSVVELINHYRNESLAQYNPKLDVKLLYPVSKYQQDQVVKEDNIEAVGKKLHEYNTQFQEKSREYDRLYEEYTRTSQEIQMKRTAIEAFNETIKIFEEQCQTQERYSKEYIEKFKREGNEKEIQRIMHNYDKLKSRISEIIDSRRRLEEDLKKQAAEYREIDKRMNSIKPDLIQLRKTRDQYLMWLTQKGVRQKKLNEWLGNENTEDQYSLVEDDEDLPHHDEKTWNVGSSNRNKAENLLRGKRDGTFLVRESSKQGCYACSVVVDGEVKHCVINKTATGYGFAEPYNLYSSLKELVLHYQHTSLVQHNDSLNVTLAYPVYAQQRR
Assay [2] addresses PI3K-delta (Homo sapiens (Human), UniProt O00329). The experiment in a line: biochemical. To be noted: PI3Kdelta IC50, HTRF biochemical assay; compound form screened given. An excerpt:
HTRF PI3K Biochemical Assay to Measure Intrinsic Potency of Compound Inhibitors
The PI3-Kinase biochemical assays were developed to measure the intrinsic potency and compound dependent inhibition of the alpha, beta, delta, and gamma PI3K isoform enzymes. This assay was developed and further optimized from a kit produced by Upstate (Millipore catalog #33-047) and has been configured for HTS and SAR screening. Briefly, this procedure exploits the exquisite specificity and high affinity binding of enzyme reaction substrate phosphatidyl(3,4,5)triphosphate (PIP3) to the GRP1 pleckstrin homology (PH) domain to generate the signal. In the absence of PIP3, an HTRF (Homogeneous Time-Resolved Fluorescence energy transfer) complex is formed consisting of europium (Eu)-labeled anti-GST, GST tagged GRP1-PH domain, biotin-PIP3 and streptavidin conjugated APC. The native PIP3 produced by PI3-Kinase activity disrupts in a competitive manner the biotin-PIP3 from the PH domain, resulting in the loss of energy transfer (HTRF complex) and a decrease in the signal. The format of this assay is the same for all 4 isoforms of PI3K; the differences lie in the concentration of enzyme used to achieve robust assay window. The alpha, beta, and delta assays are run at 0.5, 1, and 0.3 nM enzymes and the gamma assay is run at 5 nM enzyme. The ATP concentration is 100 uM in the alpha, beta, and delta assays and 50 uM ATP in the gamma assay. All reactions are run at 5 uM PIP2.
Compounds are serially diluted (3-fold in 100% DMSO) across a 384-well polypropylene source plated from column 3 to column 12 and column 13 to column 22, to yield 10 concentration dose response for each test compound. Columns 1, 2, 23 and 24 contain either only DMSO or pharmacological known control inhibitor.
The PI3-Kinase biochemical assay was optimized using the HTRF kit provided by Upstate (Millipore). The assay kit contains six reagents: 1) 4× Reaction Buffer; 2) native PIP2 (substrate); 3) Stop (EDTA); 4) Detection Mix A (Streptavidin-APC); 5) Detection Mix B (Eu-labeled Anti-GST plus GST-tagged PH-domain); 6) Detection Mix C.
PI3Kinase Reaction Buffer is prepared by dilution the stock 1:4 with de-ionized water. […] Enzyme addition and compound pre-incubation are initiated by the addition of 1.25 ul of PI3K (at twice its final concentration) in the 1× reaction buffer to all wells using a BioRaptor. Plates are incubated at room temperature for 15 minutes. Reactions are initiated by addition of 1.25 ul of 2× substrate solution (PIP2 and ATP in 1× reaction buffer) using BioRaptor. Plates are incubated in humidified chamber at room temperature for one hour. Reactions are quenched by addition of 0.625 uL of stop solution to all wells using the BioRaptor. The quenched reactions are then processed to detect product formation by adding 0.625 uL of Detection Solution to all wells using the BioRaptor (Detection mix C, Detection Mix A, and Detection Mix B combined together in an 18:1:1 ratio prepared 2 hours prior to use).
The loss of the HTRF signal is due to the displacement of biotinylated-PIP3 from the PH domain by the PI3K-dependent conversion of PIP2 to PIP3. […] All data were calculated using the ratio of acceptor (APC) to donor (Europium) fluorescence in each well of the assay plate. […] An IC50 was then calculated fitting the % inhibition data to the equation: % inhibition=min+(Max−min)/1+([inhibitor]/IC50)^n) where min is the % inhibition […], max is the signal in DMSO control, and n is the Hill slope.

PI3K-delta, sequence (O00329 whole entry, looked up): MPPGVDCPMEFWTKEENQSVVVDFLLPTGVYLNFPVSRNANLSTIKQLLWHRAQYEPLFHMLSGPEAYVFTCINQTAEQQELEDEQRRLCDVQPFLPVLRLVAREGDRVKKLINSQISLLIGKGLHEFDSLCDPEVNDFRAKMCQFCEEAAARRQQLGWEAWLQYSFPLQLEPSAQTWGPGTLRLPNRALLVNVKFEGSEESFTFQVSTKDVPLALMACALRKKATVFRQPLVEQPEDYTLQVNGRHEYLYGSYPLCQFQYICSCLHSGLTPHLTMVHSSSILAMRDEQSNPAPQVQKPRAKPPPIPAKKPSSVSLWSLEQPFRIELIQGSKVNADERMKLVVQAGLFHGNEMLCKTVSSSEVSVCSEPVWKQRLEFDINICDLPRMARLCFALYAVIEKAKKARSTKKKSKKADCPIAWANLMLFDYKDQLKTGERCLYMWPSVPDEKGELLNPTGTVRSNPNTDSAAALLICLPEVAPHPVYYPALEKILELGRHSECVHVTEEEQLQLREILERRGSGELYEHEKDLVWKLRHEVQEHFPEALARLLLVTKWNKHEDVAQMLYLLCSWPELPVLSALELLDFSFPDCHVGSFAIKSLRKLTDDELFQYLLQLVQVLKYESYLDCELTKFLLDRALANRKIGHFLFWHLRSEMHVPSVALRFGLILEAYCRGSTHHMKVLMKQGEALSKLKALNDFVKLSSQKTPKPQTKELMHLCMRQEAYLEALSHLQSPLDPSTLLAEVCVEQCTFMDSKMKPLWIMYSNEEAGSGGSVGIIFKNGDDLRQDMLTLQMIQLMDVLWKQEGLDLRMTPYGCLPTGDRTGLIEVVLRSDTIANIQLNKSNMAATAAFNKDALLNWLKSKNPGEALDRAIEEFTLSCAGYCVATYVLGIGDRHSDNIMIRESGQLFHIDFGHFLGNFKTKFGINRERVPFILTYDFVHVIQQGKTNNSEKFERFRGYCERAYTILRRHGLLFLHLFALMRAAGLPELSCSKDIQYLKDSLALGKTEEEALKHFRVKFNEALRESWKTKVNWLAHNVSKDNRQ
PI3K-delta, sequence (P27986 whole entry partner, looked up): as the sequence (P27986 whole entry partner, looked up, canonical isoform) above

Regarding `CCn1c(-c2cnc(C)nc2)nc2c(O[C@H]3CCN(C(=O)N4CCC4C)C3)ncnc21` (single isomer, unassigned) [Compound 5-15, 9-ethyl-6-({(3S)-1-[((2R or 2S)-methylazetidin-1-yl)carbonyl]pyrrolidin-3-yl}oxy)-8-(2-methylpyrimidin-5-yl)-9H-purine], the “Relative Selectivity versus PI3Kalpha” value in assay [1] is recorded as greater than 10. For the same compound, the negative logarithm of the IC50 (pIC50) in assay [2] is 8.21.
In the case of `CCn1c(-c2cnc(C)nc2)nc2c(O[C@H]3CCN(C(=O)C4CC45CCCC5)C3)ncnc21` (single isomer, unassigned) [Compound 2-123, 9-ethyl-8-(2-methylpyrimidin-5-yl)-6-{[(3S)-1-((R or S)-spiro[2.4]hept-1-ylcarbonyl)pyrrolidin-3-yl]oxy}-9H-purine], the “Relative Selectivity versus PI3Kalpha” value in assay [1] is given as greater than 10. Also, the pIC50 in assay [2] is greater than 9.00.
On the same counts, the results for `CCn1c(-c2cnc(C)nc2)nc2c(O[C@H]3CCN(C(=O)N4CCC4C)C3)ncnc21` (single isomer, unassigned) [Compound 5-16, 9-ethyl-6-({(3S)-1-[((2R or 2S)-methylazetidin-1-yl)carbonyl]pyrrolidin-3-yl}oxy)-8-(2-methylpyrimidin-5-yl)-9H-purine] are greater than 10 and 7.80.
As to `CCn1c(-c2cnc(C)nc2)nc2c(O[C@H]3CCN(C(=O)C4CC45CCCC5)C3)ncnc21` (single isomer, unassigned) [Compound 2-122, 9-ethyl-8-(2-methylpyrimidin-5-yl)-6-{[(3S)-1-((R or S)-spiro[2.4]hept-1-ylcarbonyl)pyrrolidin-3-yl]oxy}-9H-purine], in assay [1], the “Relative Selectivity versus PI3Kalpha” value is greater than 10. Also, the pIC50 in assay [2] is 7.80.
On to `CCn1c(-c2cnc(C)nc2)nc2c(O[C@@H]3CN(C(=O)C4CC4)CC3(C)C)ncnc21` (racemic) [Compound 3-62, racemic-6-{[1-(cyclopropylcarbonyl)-4,4-dimethylpyrrolidin-3-yl]oxy}-9-ethyl-8-(2-methylpyrimidin-5-yl)-9H-purine], for which the “Relative Selectivity versus PI3Kalpha” value in assay [1] was greater than 10. The compound further had a pIC50 in assay [2] of 8.64.
